Laboratory results reported in patent publication US7812117B2, “Vasostatin as marrow protectant” (The United States of America as represented by the …, priority 1998, dated 2010).

Assays:
murine bone marrow cells [1] = assay: Murine bone marrow cell proliferation in vitro ([3H] thymidine incorporation); settings: cisplatinum 25 μM, regardless the addition of vaso
murine bone marrow cells [2] = settings: C57BL/6NCR, mouse, 77 nM

Structure (SMILES) | bone marrow cell proliferation induced by IL-3 at the highest dose of cisplatinum (murine bone marrow cells [1]) | reduction of bone marrow cell proliferation (murine bone marrow cells [2])
N.N.[Cl][Pt][Cl] [Cisplatinum, cis-diammine-dichloroplatinum II, reference compound] | minimal | –
COc1cc([C@@H]2c3cc4c(cc3[C@@H](O[C@@H]3O[C@@H]5CO[C@@H](C)O[C@H]5[C@H](O)[C@H]3O)[C@H]3COC(=O)[C@H]23)OCO4)cc(OC)c1O [Etoposide, reference compound] | – | 1.5-2.7 fold
